Experimental data taken from PubChem BioAssay (NCI).
Where “and” joins values, the source holds several entries; their conditions need not be identical. Identical values can stand only once.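 The compound was tested at five concentrations on cells cultured in 96-well plates, with a 48-hour exposure period. At the GI50, growth is halved. TGI: total growth inhibition.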

Columns and labels:
Assay in all cases: inhibition of tumour cell growth, NCI panel, 48 h
A498 renal = tested on: A498 renal
CAKI-1 renal = tested on: CAKI-1 renal
CCRF-CEM leukemia = tested on: CCRF-CEM leukemia
EKVX NSCLC = tested on: EKVX NSCLC
LOX IMVI melanoma = tested on: LOX IMVI melanoma
OVCAR-4 ovarian = tested on: OVCAR-4 ovarian
HOP-92 NSCLC = tested on: HOP-92 NSCLC
NCI-H522 lung = tested on: NCI-H522 lung
HS 578T breast = tested on: HS 578T breast
PC-3 prostate = tested on: PC-3 prostate

SMILES	TGI (A498 renal)	TGI (CAKI-1 renal)	TGI (CCRF-CEM leukemia)	TGI (EKVX NSCLC)	TGI (LOX IMVI melanoma)	TGI (OVCAR-4 ovarian)	TGI (HOP-92 NSCLC)	TGI (NCI-H522 lung)	TGI (HS 578T breast)	TGI (PC-3 prostate)	GI50 (LOX IMVI melanoma)	GI50 (A498 renal)	GI50 (CAKI-1 renal)	GI50 (CCRF-CEM leukemia)	GI50 (EKVX NSCLC)	GI50 (HOP-92 NSCLC)	GI50 (HS 578T breast)	GI50 (NCI-H522 lung)	GI50 (OVCAR-4 ovarian)	GI50 (PC-3 prostate)
Nc1ccc2n[se]nc2c1	> 100 µM	> 100 µM	> 100 µM	> 100 µM	> 100 µM	> 100 µM	–	–	–	–	–	–	–	–	–	–	–	–	–	–
CCCCC1=CSC(c2ccccc2)=C(c2ccccc2)S1	> 100 µM	–	> 100 µM	> 100 µM	> 100 µM	> 100 µM	60.9 µM	–	–	–	–	–	–	–	–	–	–	–	–	–
COC(=O)CCSC(=O)Nc1ccc(N=Nc2ccccc2)cc1	62.1 µM	> 100 µM	> 100 µM	> 100 µM	> 100 µM	> 100 µM	> 100 µM	–	–	–	–	–	–	–	–	–	–	–	–	–
Nc1nnc2c(-c3ccccc3)[nH]nc2n1	> 100 µM	> 100 µM	> 100 µM	> 100 µM	> 100 µM	> 100 µM	63.6 µM	> 100 µM	–	–	–	–	–	–	–	–	–	–	–	–
Cc1ccc(NC(=O)CCc2nc(=S)[nH][nH]2)cc1	> 100 µM	> 100 µM	> 100 µM	> 100 µM	–	> 100 µM	> 100 µM	> 100 µM	–	–	–	–	–	–	–	–	–	–	–	–
O=[N+]([O-])c1ccc(C2=Nc3ccccc3S(=O)C(c3ccccc3)C2)cc1 (stereo not given)	–	37.4 µM	36.9 µM	45.1 µM	29.3 µM	42 µM	–	35.3 µM	–	–	–	–	–	–	–	–	–	–	–	–
C/C(=N\O)c1ccc2ccc3ccccc3c2c1	–	> 100 µM	> 100 µM	> 100 µM	60.6 µM	66.5 µM	–	72.7 µM	80.6 µM	> 100 µM	–	–	–	–	–	–	–	–	–	–
CCOc1ccccc1N=Nc1ccc2oc(=O)c(C(C)=O)cc2c1	> 100 µM	> 100 µM	> 100 µM	> 100 µM	> 100 µM	> 100 µM	–	> 100 µM	–	–	–	–	–	–	–	–	–	–	–	–
COC(=O)C(=O)Cc1nc2ccccc2s1	> 100 µM	> 100 µM	> 100 µM	> 100 µM	> 100 µM	> 100 µM	> 100 µM	> 100 µM	–	–	–	–	–	–	–	–	–	–	–	–
Cn1c(CBr)nc2c1C(=O)c1nc(CBr)[nH]c(=O)c1C2=O	> 100 µM	> 100 µM	> 100 µM	> 100 µM	> 100 µM	–	> 100 µM	> 100 µM	–	–	–	–	–	–	–	–	–	–	–	–
CC(C)(CN1C(=O)C(Cl)=C(Cl)C1=O)CN1C(=O)C(Cl)=C(Cl)C1=O	> 59 µM	15.9 µM	–	51.5 µM	33.5 µM	43.4 µM	18.1 µM	4.91 µM	–	–	–	–	–	–	–	–	–	–	–	–
O=C(O/N=C1\CCCC\C1=C/c1ccccc1)c1ccc([N+](=O)[O-])cc1	–	> 100 µM	> 100 µM	> 100 µM	> 100 µM	> 100 µM	> 100 µM	> 100 µM	–	–	–	–	–	–	–	–	–	–	–	–
O=S1(=O)N2CN3CN(C2)CN1C3	522 µM	571 µM	> 31.6 µM and 110 µM	823 µM	> 79.1 µM and 67.5 µM	80.8 µM	–	412 µM	–	–	25.2 µM	–	–	–	–	–	–	–	–	–
Cc1ccc(NC(=O)CCCC(=O)CC(=O)c2ccc(Br)cc2)cc1	> 100 µM	> 100 µM	> 100 µM	> 100 µM	> 100 µM	> 100 µM	> 100 µM	> 100 µM	–	–	–	–	–	–	–	–	–	–	–	–
N#CCCn1[nH]c(=O)c(Cl)c(Cl)c1=O	41.2 µM	–	–	12.5 µM	28.3 µM	32 µM	16.6 µM	41.3 µM	–	–	–	–	–	–	–	–	–	–	–	–
CC1(C)CCC(Sc2ccccc2)O1 (stereo not given)	> 100 µM	> 100 µM	> 100 µM	> 100 µM	> 100 µM	> 100 µM	> 100 µM	–	–	–	–	–	–	–	–	–	–	–	–	–
CC(C)/C=C1\CCC(CN(C)C)C1=O (stereo not given)	16.7 µM	4.21 µM	5.34 µM	15.5 µM	11.9 µM	30.8 µM	3.47 µM	0.22 µM	–	14.5 µM	–	–	–	–	–	–	–	–	–	–
O=C1c2ccccc2C(=O)c2cc3c(cc21)CS(=O)C3	–	> 100 µM	> 100 µM	> 100 µM	> 100 µM	> 100 µM	> 100 µM	> 100 µM	–	–	–	–	–	–	–	–	–	–	–	–

SMILES	TGI (A498 renal)	TGI (CAKI-1 renal)	TGI (CCRF-CEM leukemia)	TGI (EKVX NSCLC)	TGI (LOX IMVI melanoma)	TGI (OVCAR-4 ovarian)	TGI (HOP-92 NSCLC)	TGI (NCI-H522 lung)	TGI (HS 578T breast)	TGI (PC-3 prostate)	GI50 (LOX IMVI melanoma)	GI50 (A498 renal)	GI50 (CAKI-1 renal)	GI50 (CCRF-CEM leukemia)	GI50 (EKVX NSCLC)	GI50 (HOP-92 NSCLC)	GI50 (HS 578T breast)	GI50 (NCI-H522 lung)	GI50 (OVCAR-4 ovarian)	GI50 (PC-3 prostate)
O=C(c1ccc(O)cc1O)C1C(c2ccc(O)cc2)OC(c2ccc(O)cc2)C1C(=O)c1ccc(O)cc1O (stereo not given)	–	> 100 µM	–	60 µM	44.2 µM	> 100 µM	–	34.3 µM	–	–	–	–	–	–	–	–	–	–	–	–
COc1ccc(-c2cc(-c3ccc(Nc4nc(Nc5ccccc5)nc(Nc5ccc(Cl)cc5)n4)cc3)nc(N)n2)cc1	20 µM	23.3 µM	29.5 µM	> 50 µM	39 µM	> 50 µM	19.3 µM	27.1 µM	32.2 µM	–	11.1 µM	9.29 µM	5.4 µM	6 µM	6.55 µM	5.28 µM	6.65 µM	9.02 µM	10.7 µM	–
COc1ccccc1NC(=O)C1=C(C)NC(C)=C(C(=O)Nc2ccccc2OC)C1c1ccccc1[N+](=O)[O-]	–	–	48.9 µM	> 100 µM	33.2 µM	46.3 µM	59.5 µM	26.8 µM	–	–	–	–	–	–	–	–	–	–	–	–
O=C1[C@@H]2C(c3ccc(Br)cc3)=NO[C@@H]2C(=O)N1c1ccc(Cc2ccc(N3C(=O)[C@H]4C(c5ccc(Br)cc5)=NO[C@H]4C3=O)cc2)cc1	> 3.48 µM and 16.2 µM	> 40 µM	> 40 µM	> 3.48 µM	–	> 40 µM	> 40 µM	> 40 µM	–	–	–	–	> 40 µM	> 40 µM	–	–	–	> 40 µM	> 40 µM	–
CN=c1ss/c(=N\C(=S)N(C)C)n1C	> 100 µM	> 100 µM	> 100 µM	> 100 µM	–	> 100 µM	> 100 µM	–	–	–	–	–	–	–	–	–	–	–	–	–
COc1cc(C2c3cc4c(cc3[C@@H](NCCN(C)C)C3COC(=O)[C@H]23)OCO4)cc(OC)c1O (stereo not given in full)	–	3.46 µM and 4.21 µM	0.417 µM and 0.352 µM	5.08 µM and 11 µM	0.69 µM and 1.29 µM	5.19 µM and 13.3 µM	0.0928 µM and 0.335 µM	1.76 µM and 2.2 µM	–	–	0.0366 µM and 0.119 µM	–	0.306 µM and 0.652 µM	0.0136 µM and 0.0277 µM	1.56 µM and 3.29 µM	–	–	–	–	–
C[C@H]1CC[P+](Cc2ccccc2)(c2ccccc2)C1 (stereo not given in full)	> 100 µM	–	> 100 µM	> 100 µM	> 100 µM	> 100 µM	–	> 100 µM	–	–	–	–	–	–	–	–	–	–	–	–
Nc1nncc2c1c(Br)cn2C1OC(CO)C(O)C1O (stereo not given)	> 100 µM	> 100 µM	> 100 µM	> 100 µM	> 100 µM	> 100 µM	62.3 µM	> 100 µM	–	–	–	–	–	–	–	–	–	–	–	–
CN(C)CCNC(=O)c1cccc2c1nc(-c1ccc(F)cc1)c1ccccc12	16.2 µM	16.8 µM	11.9 µM	21.7 µM	5.36 µM	19.1 µM	9.89 µM	–	–	–	–	–	–	–	–	–	–	–	–	–
CC(=O)C1CCN(c2ccccc2)C1 (stereo not given)	> 100 µM	> 100 µM	> 100 µM	> 100 µM	–	> 100 µM	> 100 µM	> 100 µM	–	–	–	–	–	–	–	–	–	–	–	–
CCN1CCN(c2nc(C)cc(N(CCCNc3ccnc4cc(Cl)ccc34)Cc3ccc4c(c3)OCO4)n2)CC1	4.23 µM	–	7.14 µM	10.9 µM	3.18 µM	7.12 µM	3.1 µM	3.39 µM	–	11 µM	1.62 µM	1.38 µM	–	1.81 µM	2.6 µM	1.15 µM	–	1.66 µM	1.75 µM	2.43 µM
CC(C)(C)c1cc(CCC(=O)Nc2ccc(Cl)cc2)[nH]c(=S)n1	–	> 100 µM	> 100 µM	> 100 µM	> 100 µM	> 100 µM	–	> 100 µM	–	–	–	–	–	–	–	–	–	–	–	–
COC1C2C[C@@H](O)CCC2C(C(=O)OCCl)C[C@H]1O (stereo not given in full)	> 100 µM	> 100 µM	> 100 µM	–	–	> 100 µM	–	> 100 µM	–	–	–	–	–	–	–	–	–	–	–	–
NC(=O)c1ccc2c(c1)-c1nc-2nc2[n-]c(nc3nc(nc4[n-]c(n1)c1ccc(C(N)=O)cc41)-c1ccc(C(N)=O)cc1-3)c1ccc(C(N)=O)cc21.[Co+2]	> 50 µM	> 50 µM	> 50 µM	> 50 µM	> 50 µM	> 50 µM	> 50 µM	> 50 µM	–	–	16.1 µM	> 50 µM	> 50 µM	14.5 µM	> 50 µM	> 50 µM	–	> 50 µM	> 50 µM	–
COc1cccc(/C=C/C(=O)c2ccc3cc(OC)ccc3c2)c1	–	> 50 µM	–	40.8 µM	14.5 µM	> 50 µM	41.3 µM	–	48.3 µM	> 50 µM	2.92 µM	–	16.4 µM	–	13 µM	11.1 µM	14.3 µM	–	24.7 µM	18.3 µM
NC1NC=NC2C1N=CN2C1OC(CO)C2[O][Sn][O]C21 (stereo not given)	> 100 µM	> 100 µM	> 100 µM	> 100 µM	> 100 µM	> 100 µM	> 100 µM	> 100 µM	–	–	> 100 µM	> 100 µM	> 100 µM	> 100 µM	> 100 µM	27.5 µM	–	> 100 µM	> 100 µM	–
CC(C)N(C(=O)C12C3C4C1C1C2C3C41C#N)C(C)C (stereo not given)	> 100 µM	> 100 µM	> 85.1 µM	> 100 µM	> 67.2 µM	> 100 µM	> 100 µM	> 100 µM	–	–	–	–	–	–	–	–	–	–	–	–
